Experimental data as given in article PMC10011156, “Characterization of a highly conserved MUC5B-degrading protease, MdpL, from Limosilactobacillus fermentum” (Frontiers in Microbiology, 2023).

Target: T1, MdpL (Mucin degrading protease from Limosilactobacillus); putative O-sialoglycoprotein endopeptidase (OSGP) (Limosilactobacillus fermentum, UniProt B2GAG0)
T1 construct: gene tsaD; C-terminal Gly-Ser-Gly linker and 6xHis tag kept
T1 sequence (B2GAG0 1-344): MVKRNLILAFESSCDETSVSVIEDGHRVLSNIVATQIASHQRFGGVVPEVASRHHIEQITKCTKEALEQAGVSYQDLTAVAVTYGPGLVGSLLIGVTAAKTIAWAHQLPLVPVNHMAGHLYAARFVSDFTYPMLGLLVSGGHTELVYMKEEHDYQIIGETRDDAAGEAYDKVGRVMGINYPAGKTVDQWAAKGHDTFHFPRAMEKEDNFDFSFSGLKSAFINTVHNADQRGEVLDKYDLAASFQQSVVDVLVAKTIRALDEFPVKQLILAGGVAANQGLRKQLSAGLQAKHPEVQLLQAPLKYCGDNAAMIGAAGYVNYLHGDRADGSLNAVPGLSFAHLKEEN
Experiment: Etanercept hydrolysis, SDS-PAGE with densitometry
Type: biochemical
Details: inhibitor concentration per manufacturer, not given

SMILES	inhibition level (%)
NCCc1ccc(S(=O)(=O)F)cc1 [AEBSF]	AEBSF, ALLN, Antipain, Chymostatin, E64, Leupeptin, and Phosphoramidon completely inhibited the MdpL activity
CC(C)C[C@H](NC(=O)[C@@H](O)[C@H](N)Cc1ccccc1)C(=O)O [Bestatin]	Bestatin, and PMSF had a moderate inhibitory effect
CC(C)C[C@H](NC(=O)[C@@H]1O[C@H]1C(=O)O)C(=O)NCCCCNC(=N)N [E64]	AEBSF, ALLN, Antipain, Chymostatin, E64, Leupeptin, and Phosphoramidon completely inhibited the MdpL activity
CC(C)C[C@H](NP(=O)(O)O[C@@H]1O[C@@H](C)[C@H](O)[C@@H](O)[C@H]1O)C(=O)N[C@@H](Cc1c[nH]c2ccccc12)C(=O)O [Phosphoramidon]	AEBSF, ALLN, Antipain, Chymostatin, E64, Leupeptin, and Phosphoramidon completely inhibited the MdpL activity
